This is an account of results in patent US20240174647A1 (NEURON23, INC., priority 2022, published 2024).

pIC50: −log10 of the molar value.

For this test, the target named is wt human LRRK2, catalytic site (Homo sapiens (Human), UniProt Q5S007). Description: TR-FRET LanthaScreen Tb Kinase Activity Assay (LRRK2 kinase inhibition). Conditions: 2 nM wt human LRRK2, 400 nM fluorescein-ERM (LRRKtide) peptide, 38 μM ATP, 120 minutes at room temperature. Type of test: biochemical. As for the experimental part: The compounds in Table 1 were tested for their inhibitory effect on LRRK2 kinase according to the following procedures.
Sequence of wt human LRRK2, catalytic site (Q5S007 1879-2138): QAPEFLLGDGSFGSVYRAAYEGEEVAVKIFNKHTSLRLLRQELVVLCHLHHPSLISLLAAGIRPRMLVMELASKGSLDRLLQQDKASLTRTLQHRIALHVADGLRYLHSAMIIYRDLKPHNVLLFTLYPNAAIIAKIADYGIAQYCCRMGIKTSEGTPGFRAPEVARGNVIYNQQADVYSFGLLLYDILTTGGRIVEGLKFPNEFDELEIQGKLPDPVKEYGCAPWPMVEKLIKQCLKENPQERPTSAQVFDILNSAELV
The protocol for basic TR-FRET LanthaScreen Tb Kinase Activity Assay inhibitor studies were as follows. LanthaScreen Kinase Activity Assays (ThermoFisher/USA) to evaluate inhibitors were performed by addition of 100 nL of test compound in corresponding DMSO dilutions/5 μL of kinase/fluorescein-ERM(LRRKtide) peptide mixture, 5 μL of ATP into 384 well small volume plates. After incubation for 120 minutes at room temperature, the detection reagents containing Tb-anti-pLRRKtide antibody were added to monitor phosphrylation level of peptide. Then, after 60 min minutes incubation at room temperature plates were read in Envision. Data analysis of emission ratios was according to LanthaScreen Tb Kinase Activity Assay protocol.
Kinase and assay components were adjusted to final concentrations according to the kit protocol. For LRRK2: 2 nM wt human LRRK2, catalytic site, catalytic site (ThermoFisher/USA), 400 nM peptide, 38 μM ATP in 1× Kinase Buffer A.
Basic protocol for TR-FRET LanthaScreen Tb Kinase Activity Assay inhibitor studies involved two steps: • Enzymatic step: Addition of 100 nL of test compound in corresponding DMSO dilutions, 5 μL of kinase/substrate mixture, 5 μL of ATP into 384 well small volume plates. Incubation for 120 minutes at room temperature. • Detection step: Addition of 10 μL EDTA & antibody, read plate after 60 minutes. Data analysis of emission ratios according to KinEASE assay protocol.
Kinase and assay components were adjusted to final concentrations according to the kit protocol.
In the table below, activity is provided as follows: +++=IC50 less than 50 nM; ++=IC50 between 50 nM and 200 nM; +=IC50>=200 nM
On the technique in general: TR-FRET usually uses a lanthanide donor and a delayed reading to cut background.
In turn, `CS(=O)(=O)CCn1ncc2c(Nc3ncc(C(F)(F)F)c(N[C@H]4C[C@H]4F)n3)cccc21` [Example 198, N^4-((1S,2R)-2-fluorocyclopropyl)-N^2-(1-(2-(methylsulfonyl)ethyl)-1H-indazol-4-yl)-5-(trifluoromethyl)pyrimidine-2,4-diamine] showed a negative-log IC50 (pIC50) greater than 7.30. In the case of `CC(C)(C#N)n1ncc2c(Nc3ncc(C(F)(F)F)c(NC4CCC4)n3)cccc21` [Example 113, 2-(4-((4-(cyclobutylamino)-5-(trifluoromethyl)pyrimidin-2-yl)amino)-1H-indazol-1-yl)-2-methylpropanenitrile] it was greater than 7.30. For the compound `CNc1nc(Nc2cc(F)cc3[nH]ncc23)ncc1C(F)(F)F` [Example 25, N2-(6-fluoro-1H-indazol-4-yl)-N4-methyl-5-(trifluoromethyl)pyrimidine-2,4-diamine], the pIC50 is greater than 7.30. The value for `CNc1nc(Nc2ccc(C(F)(F)F)c3c2cnn3CC#N)ncc1C(F)(F)F` [Example 80, 2-(4-((4-(methylamino)-5-(trifluoromethyl)pyrimidin-2-yl)amino)-7-(trifluoromethyl)-1H-indazol-1-yl)acetonitrile] was greater than 7.30; that for `CNc1nc(Nc2cc3[nH]ncc3cc2OC(F)(F)F)ncc1C(F)(F)F` [Example 129, N4-methyl-N2-[5-(trifluoromethoxy)-1H-indazol-6-yl]-5-(trifluoromethyl) pyrimidine-2,4-diamine] was greater than 7.30; that for `CNc1nc(Nc2cn(C)c3ncncc23)ncc1C(F)(F)F` [Example 125, 4-methyl-N2(7-methylpyrrolo[2,3-d]pyrimidin-5-yl)-5-(trifluoromethyl) pyrimidine-2,4-diamine] was greater than 7.30. Take `COCCNc1nc(Nc2cccc3c2cnn3S(=O)(=O)C2CC2)ncc1C(F)(F)F` [Example 145, N^2-(1-cyclopropylsulfonylindazol-4-yl)-N^4-(2-methoxyethyl)-5-(trifluoromethyl) pyrimidine-2,4-diamine]: the negative-log IC50 (pIC50) was greater than 7.30. For the compound `CC(C)Nc1nc(Nc2cccc3c2cnn3C(C)(C)C#N)ncc1C(F)(F)F` [Example 108, 2-(4-((4-(isopropylamino)-5-(trifluoromethyl)pyrimidin-2-yl)amino)-1H-indazol-1-yl)-2-methylpropanenitrile], the pIC50 is greater than 7.30.

For `CS(=O)(=O)CCNc1nc(Nc2cccc3c2cnn3S(=O)(=O)C2CC2)ncc1C(F)(F)F` [Example 138, N^2-(1-(cyclopropylsulfonyl)-1H-indazol-4-yl)-N^4-(2-(methylsulfonyl)ethyl)-5-(trifluoromethyl)pyrimidine-2,4-diamine], the negative logarithm of the IC50 (pIC50) was greater than 7.30. `CC(C)(C#N)n1ncc2c(Nc3ncc(C(F)(F)F)c(NC4CC4)n3)cccc21` [Example 103, 2-(4-((4-(cyclopropylamino)-5-(trifluoromethyl)pyrimidin-2-yl)amino)-1H-indazol-1-yl)-2-methylpropanenitrile] had a negative logarithm of the IC50 (pIC50) greater than 7.30.

Take `CNc1nc(Nc2ccc(Cl)c3c2cnn3CC#N)ncc1C(F)(F)F` [Example 111, 2-(7-chloro-4-((4-(methylamino)-5-(trifluoromethyl)pyrimidin-2-yl)amino)-1H-indazol-1-yl)acetonitrile]: the negative-log IC50 (pIC50) was greater than 7.30. In turn, `COCCS(=O)(=O)n1ncc2c(Nc3ncc(C(F)(F)F)c(NC4CC4)n3)cccc21` [Example 136, N^4-cyclopropyl-N^2-(1-((2-methoxyethyl)sulfonyl)-1H-indazol-4-yl)-5-(trifluoromethyl)pyrimidine-2,4-diamine] gave a negative-log IC50 (pIC50) greater than 7.30. Turning to `CNc1nc(Nc2cc(CCC(=O)N3CCOCC3)cc3c2cnn3C)ncc1C(F)(F)F` [Example 54, 3-(1-methyl-4-((4-(methylamino)-5-(trifluoromethyl)pyrimidin-2-yl)amino)-1H-indazol-6-yl)-1-morpholinopropan-1-one], the pIC50 is 6.70 to 7.30. Compound `CNc1nc(Nc2ccc(F)c3c2cnn3CC#N)ncc1C(F)(F)F` [Example 85, 2-(7-fluoro-4-((4-(methylamino)-5-(trifluoromethyl)pyrimidin-2-yl)amino)-1H-indazol-1-yl)acetonitrile] gave a pIC50 greater than 7.30. `CNc1nc(Nc2ccc3[nH]ncc3c2)ncc1C(F)(F)F` [Example 72, N2-(1H-indazol-5-yl)-N4-methyl-5-(trifluoromethyl)pyrimidine-2,4-diamine] gave a negative-log IC50 (pIC50) greater than 7.30. In the case of `CC(C)Nc1nc(Nc2cccc3c2cnn3CC#N)ncc1C(F)(F)F` [Example 110, 2-(4-((4-(isopropylamino)-5-(trifluoromethyl)pyrimidin-2-yl)amino)-1H-indazol-1-yl)acetonitrile] it was no more than 6.70; in that of `CNc1nc(Nc2nn(C)c3ccccc23)ncc1C(F)(F)F` [Example 67, N4-methyl-N2-(1-methyl-1H-indazol-3-yl)-5-(trifluoromethyl)pyrimidine-2,4-diamine], no more than 6.70; in that of `CNc1nc(Nc2cccn3cncc23)ncc1C(F)(F)F` [Example 130, N^2-(imidazo[1,5-a]pyridin-8-yl)-N^4-methyl-5-(trifluoromethyl)pyrimidine-2,4-diamine], greater than 7.30.

`CNc1nc(Nc2cccc3c2cnn3C(=O)N2CCOCC2)ncc1C(F)(F)F` [Example 32, (4-((4-(methylamino)-5-(trifluoromethyl)pyrimidin-2-yl)amino)-1H-indazol-1-yl)(morpholino)methanone] gave a negative logarithm of the IC50 (pIC50) greater than 7.30.

Regarding `COCCn1ncc2c(Nc3ncc(C(F)(F)F)c(NC4CC4)n3)cccc21` [Example 133, N^4-cyclopropyl-N^2-[1-(2-methoxyethyl)indazol-4-yl]-5-(trifluoromethyl) pyrimidine-2,4-diamine], the pIC50 is greater than 7.30. For the compound `CC(C)S(=O)(=O)n1ncc2c(Nc3ncc(C(F)(F)F)c(NC4CC4)n3)cccc21` [Example 135, N^4-cyclopropyl-N^2-(1-isopropylsulfonylindazol-4-yl)-5-(trifluoromethyl) pyrimidine-2,4-diamine], the pIC50 was greater than 7.30. `CNc1nc(Nc2ccc(CCC(=O)N3CCOCC3)c3[nH]ncc23)ncc1C(F)(F)F` [Example 57, 3-(4-((4-(methylamino)-5-(trifluoromethyl)pyrimidin-2-yl)amino)-1H-indazol-7-yl)-1-morpholinopropan-1-one] had a negative logarithm of the IC50 (pIC50) greater than 7.30. In the case of `CNc1nc(Nc2ccc(C3=CCN(C)CC3)c3c2cnn3CC(N)=O)ncc1C(F)(F)F` [Example 100, 2-(7-(1-methyl-1,2,3,6-tetrahydropyridin-4-yl)-4-((4-(methylamino)-5-(trifluoromethyl)pyrimidin-2-yl)amino)-1H-indazol-1-yl)acetamide] it was greater than 7.30; in that of `CNc1nc(Nc2ccc3nn(C)cc3c2)ncc1C(F)(F)F` [Example 74, N4-methyl-N2-(2-methyl-2H-indazol-5-yl)-5-(trifluoromethyl)pyrimidine-2,4-diamine], greater than 7.30; in that of `CCNc1nc(Nc2cccc3c2cnn3CC(F)F)nc2[nH]nc(C)c12` [Example 185, N^6-(1-(2,2-difluoroethyl)-1H-indazol-4-yl)-N^4-ethyl-3-methyl-1H-pyrazolo[3,4-d]pyrimidine-4,6-diamine], greater than 7.30.

`C[C@@]1(n2ncc3c(Nc4ncc(C(F)(F)F)c(NC5CC5)n4)cccc32)CCOC1=O` [Example 166, (R)-3-(4-((4-(cyclopropylamino)-5-(trifluoromethyl)pyrimidin-2-yl)amino)-1H-indazol-1-yl)-3-methyldihydrofuran-2(3H)-one] had a pIC50 greater than 7.30.

What is called pIC50 is the IC50 on a negative log10 scale, so that one unit is a factor of ten. Low readings indicate a large IC50, high ones a small IC50.
